Source: PubChem BioAssay (NCI)
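In this assay, cells in 96-well plates receive the compound at five concentrations for 48 hours. Endpoints are linearly interpolated between the surrounding concentrations. TGI is the concentration that stops growth completely.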

How the values were obtained:
Test in all cases: growth of human tumour cells (NCI), 48 h
[1] = test system: MCF7 breast
[2] = test system: HCT-116 colon
[3] = test system: LOX IMVI melanoma
[4] = test system: NCI-H226 lung
[5] = test system: SN12C renal
[6] = test system: HT29 colon
[7] = test system: RPMI-8226 leukemia
[8] = test system: SNB-75 CNS
[9] = test system: BT-549 breast
[10] = test system: UACC-257 melanoma
[11] = test system: SF-295 CNS
[12] = test system: NCI-H460 lung
[13] = test system: HOP-92 NSCLC
[14] = test system: MALME-3M melanoma
[15] = test system: SF-268 CNS
[16] = test system: UACC-62 melanoma
[17] = test system: K-562 leukemia
[18] = test system: HCC-2998 colon
[19] = test system: SW-620 colon
[20] = test system: M14 melanoma
[21] = test system: TK-10 renal
[22] = test system: MOLT-4 leukemia
[23] = test system: T-47D breast
[24] = test system: HCT-15 colon
[25] = test system: SNB-19 CNS
[26] = test system: NCI/ADR-RES ovarian
[27] = test system: SK-MEL-5 melanoma
[28] = test system: KM12 colon
[29] = test system: MDA-MB-435
[30] = test system: HS 578T breast
[31] = test system: NCI-H522 lung
[32] = test system: COLO 205 colon
[33] = test system: NCI-H23 lung
[34] = test system: EKVX NSCLC
[35] = test system: PC-3 prostate
[36] = test system: SK-MEL-2 melanoma
[37] = test system: CCRF-CEM leukemia
[38] = test system: MDA-N
[39] = test system: UO-31 renal
[40] = test system: SR leukemia
[41] = test system: OVCAR-5 ovarian
[42] = test system: RXF 393 renal
[43] = test system: MDA-MB-231 breast
[44] = test system: SK-OV-3 ovarian
[45] = test system: HOP-62 NSCLC
[46] = test system: HL-60(TB) leukemia
[47] = test system: U251 CNS
[48] = test system: ACHN renal
[49] = test system: DU-145 prostate
[50] = test system: A549 NSCLC
[51] = test system: OVCAR-3 ovarian
[52] = test system: SK-MEL-28 melanoma
[53] = test system: 786-0 renal
[54] = test system: A498 renal
[55] = test system: CAKI-1 renal
[56] = test system: IGROV1 ovarian
[57] = test system: OVCAR-4 ovarian
[58] = test system: OVCAR-8 ovarian
[59] = test system: SF-539 CNS

Measured: TGI

O=C(O)CCc1ccc(-c2ccccc2)[nH]1
> 100 µM: [1] | [2] | [3] | [4] | [5] | [6] | [7] | [8] | [9] | [10] | [11] | [12] | [13] | [14] | [15] | [16] | [17] | [18] | [19] | [20] | [21] | [22] | [23] | [24] | [25] | [26] | [27] | [28] | [29] | [30] | [31] | [32] | [33] | [34] | [35] | [36] | [37] | [38] | [39] | [40] | [41] | [42] | [43] | [44] | [45] | [46] | [47] | [48] | [49] | [50] | [51] | [52] | [53] | [54] | [55] | [56] | [57] | [58] | [59]
